Results taken from US20250228242A1 (priority 2021, published 2025).
Structures can show the parent of a compound that is named as a salt.

Tested on: P. infestans
Test: whole plant or invertebrate
Type: in vivo
Conditions: Phytophthora infestans, in Solanum tuberosum, read-out: P. infestans % inhibition

| Structure (SMILES) | inhibition at 100 µM [%] |
| --- | --- |
| COc1cc(Cl)cc(-c2nc(-c3ccc(OC(F)(F)F)cc3)co2)c1 [Compound 130, 2-(3-Chloro-5-methoxyphenyl)-4-[4-(trifluoromethoxy)phenyl]-1,3-oxazole] | 9 |
| O=C(O)c1ccc(-c2nc(-c3ccc(N4CCCC4)cc3)c[nH]2)cc1 [Compound 135, 4-{4-[4-(Pyrrolidin-1-yl)phenyl]-1H-imidazol-2-yl}benzoic acid] | 51 |
| CCOc1cccc(-c2cc(-c3ccc(OC(F)(F)F)cc3)[nH]n2)c1 [Compound 165, 5-(3-Ethoxyphenyl)-3-[4-(trifluoromethoxy)phenyl]-1H-pyrazole] | 2 |
| COc1ccc(-c2noc(-c3cccc(Cl)c3)n2)cc1 [Compound 67, 5-(3-Chlorophenyl)-3-(4-methoxyphenyl)-1,2,4-oxadiazole] | 55 |
| CC(C)[C@H](N)C(=O)Nc1cccc(-c2cc(-c3cccc(OC(F)(F)F)c3)[nH]n2)c1 [Compound 145, (2S)-2-Amino-N-{3-[5-(3-trifluoromethoxyphenyl)-1H-pyrazol-3-yllphenyl}-3-methylbutanamide hydrochloride] | 97 |
| COCCOC(=O)Nc1cccc(-c2nc(-c3ccc(OC(F)(F)F)cc3)c[nH]2)c1 [Compound 137, 2-Methoxyethyl (3-{4-[4-(trifluoromethoxy)phenyl]-1H-imidazol-2-yl}phenyl) carbamate] | 77 |
| CN1CCN(c2ccc(-c3cc(-c4cc(F)cc(F)c4)[nH]n3)cc2)CC1 [Compound 146, 1-{4-[5-(3,5-Difluorophenyl)-1H-pyrazol-3-yl]phenyl}-4-methylpiperazine] | 95 |
| CCc1ccc(-c2c[nH]c(-c3ccc(NC(=O)[C@@H]4CCCN4)cc3)n2)cc1 [Compound 153, (2S)-N-{4-[4-(4-Ethylphenyl)-1H-imidazol-2-yl]phenyl}pyrrolidine-2-carboxamide dihydrochloride] | 95 |
| Cc1ccc(-c2n[nH]c(-c3cccc(NC(=O)OC(C)C)c3)n2)cc1 [Compound 157, Propan-2-yl {3-[3-(4-methylphenyl)-1H-1,2,4-triazol-5-yl]phenyl}carbamate] | 17 |
| Oc1cccc(-c2cnc(-c3cccc(Br)c3)[nH]2)c1 [Compound 87, 2-(3-Bromophenyl)-5-(3-hydroxyphenyl)-1H-imidazole] | 99 |
| CC1(C)CCc2cc(-c3cc(-c4cccc(Br)c4)[nH]n3)ccc2O1 [Compound 97, 5-(3-Bromophenyl)-3-(2,2-dimethyl-3,4-dihydro-2H-chromen-6-yl)-1H-pyrazole] | 10 |
| CCc1ccc(-c2nc(-c3ccc(OC(F)(F)F)cc3)c[nH]2)cc1 [Compound 66, 2-(4-Ethylphenyl)-4-[4-(trifluoromethoxy)phenyl]-1H-imidazole] | 29 |
| FC(F)(F)c1cccc(-c2nc(-c3cccc(Cl)c3)n[nH]2)c1 [Compound 161, 3-(3-Chlorophenyl)-5-[3-(trifluoromethyl)phenyl]-1H-1,2,4-triazole] | 50 |
| Cc1ccc(-c2noc(-c3ccc(S(C)(=O)=O)cc3)n2)cc1 [Compound 89, 3-(4-Methylphenyl)-5-[4-(methylsulfonyl)phenyl]-1,2,4-oxadiazole] | 8 |
| Cc1ccc(-c2cc(-c3ccc(O)cc3)no2)cc1 [Compound 85, 3-(4-Hydroxyphenyl)-5-(4-methylphenyl)-1,2-oxazole] | 10 |
| COc1ccc(-c2noc(-c3ccccc3Br)n2)cc1 [Compound 68, 5-(2-Bromophenyl)-3-(4-methoxyphenyl)-1,2,4-oxadiazole] | 17 |
| Cc1ccc(NC(=O)c2cccc(Cl)c2)cc1-c1nc(-c2ccc(F)cc2)n[nH]1 [Compound 102, 3-Chloro-N-{3-[3-(4-fluorophenyl)-1H-1,2,4-triazol-5-yl]-4-methylphenyl}benzamide] | 30 |
| Cc1ccc(N)cc1-c1nc(-c2ccc(F)cc2)n[nH]1 [Compound 100, 5-(3-Amino-6-methylphenyl)-3-(4-fluorophenyl)-1H-1,2,4-triazole] | 51 |
| O=C(O)c1cccc(-c2cc(-c3ccc4c(c3)OCO4)[nH]n2)c1 [Compound 166, 3-[5-(1,3-Benzodioxol-5-yl)-1H-pyrazol-3-yl]benzoic acid] | 6 |
| O=[N+]([O-])c1ccc(-c2nc(-c3cccc(C(F)(F)F)c3)no2)cc1 [Compound 73, 5-(4-Nitrophenyl)-3-[3-(trifluoromethyl)phenyl]-1,2,4-oxadiazole] | 2 |
| Oc1ccc(-c2noc(-c3ccc(Cl)cc3)n2)cc1 [Compound 70, 5-(4-Chlorophenyl)-3-(4-hydroxyphenyl)-1,2,4-oxadiazole] | 33 |
| O=S(=O)(Nc1ccc(-c2n[nH]c(-c3ccc(C(F)(F)F)cc3)n2)cc1)c1ccc(Cl)cc1 [Compound 92, 4-Chloro-N-(4-{5-[4-(trifluoromethyl)phenyl]-1H-1,2,4-triazol-3-yl}phenyl)benzenesulfonamide] | 84 |
| N[C@@H](CC(=O)O)C(=O)Nc1ccc(-c2nc(-c3cccc(C(F)(F)F)c3)no2)cc1 [Compound 133, (3S)-3-Amino-4-oxo-4-[(4-{3-[3-(trifluoromethyl)phenyl]-1,2,4-oxadiazol-5-yl}phenyl)amino]butanoic acid hydrochloride] | 85 |

| Structure (SMILES) | inhibition at 100 µM [%] |
| --- | --- |
| O=C(Nc1cccc(-c2c[nH]c(-c3ccc(F)cc3)n2)c1)c1ccccc1 [Compound 88, N-{3-[2-(4-fluorophenyl)-1H-imidazol-5-yl]phenyl}benzamide] | 28 |
| COc1cccc(-c2cnc(-c3cccc(Br)c3)[nH]2)c1 [Compound 86, 2-(3-Bromophenyl)-5-(3-methoxyphenyl)-1H-imidazole] | 75 |
| Clc1cccc(-c2cc(-c3ccc4c(c3)OCCO4)n[nH]2)c1 [Compound 80, 5-(3-Chlorophenyl)-3-(2,3-dihydro-1,4-benzodioxin-6-yl)-1H-pyrazole] | 77 |
| Cc1cccc(-c2nc(-c3ccc(Cl)c(Cl)c3)c[nH]2)c1 [Compound 79, 5-(3,4-Dichlorophenyl)-2-(3-methylphenyl)-1H-imidazole] | 81 |
| Oc1ccc(F)cc1-c1c[nH]c(-c2ccc(C(F)(F)F)cc2)n1 [Compound 81, 5-(2-Hydroxy-5-fluorophenyl)-2-[4-(trifluoromethyl)phenyl]-1H-imidazole] | 10 |
| CC(C)[C@H](N)C(=O)Nc1ccc(-c2cc(-c3cccc(F)c3)on2)cc1 [Compound 93, (2S)-2-Amino-N-{4-[5-(3-fluorophenyl)-1,2-oxazol-3-yl]phenyl}-3-methylbutanamide hydrochloride] | 95 |
| CCSc1ccc(-c2cc(-c3ccccc3Cl)no2)cc1 [Compound 52, 3-(2-Chlorophenyl)-5-[4-(ethylsulfanyl)phenyl]-1,2-oxazole] | 9 |
| CCOC(=O)c1ccc(-c2ncc(-c3ccc(C)cc3)o2)cc1 [Compound 115, Ethyl 4-[5-(4-methylphenyl)-1,3-oxazol-2-yl]benzoate] | 12 |
| Brc1cccc(-c2cc(-c3ccc4nccnc4c3)n[nH]2)c1 [Compound 112, 6-[5-(3-Bromophenyl)-1H-pyrazol-3-yl]quinoxaline] | 44 |
| N[C@@H](Cc1ccccc1)C(=O)Nc1cccc(-c2nc(-c3ccc(OC(F)(F)F)cc3)c[nH]2)c1 [Compound 141, (2S)-2-Amino-N-{3-[4-(4-trifluoromethoxyphenyl)-1H-imidazol-2-yl]phenyl}-3-phenylpropanamide hydrochloride] | 93 |
| COc1cccc(-c2nc(-c3ccc(F)cc3)no2)c1 [Compound 51, 3-(4-Fluorophenyl)-5-(3-methoxyphenyl)-1,2,4-oxadiazole] | 8 |
| FC(F)(F)Oc1ccc(-c2c[nH]c(-c3ccc(Br)cc3)n2)cc1 [Compound 84, 2-(4-Bromophenyl)-5-[4-(trifluoromethoxy)phenyl]-1H-imidazole] | 96 |
| CCNC(=O)Nc1ccc(C)c(-c2nc(-c3ccc(F)cc3)n[nH]2)c1 [Compound 101, 1-Ethyl-3-{3-[3-(4-fluorophenyl)-1H-1,2,4-triazol-5-yl]-4-methylphenyl}urea] | 69 |
| CN1CCN(c2ccc(-c3cc(-c4cc(F)ccc4F)[nH]n3)cc2)CC1 [Compound 149, 1-{4-[5-(2,5-Difluorophenyl)-1H-pyrazol-3-yl]phenyl}-4-methylpiperazine] | 8 |
| Nc1ccc(-c2cc(-c3ccccc3F)no2)cc1 [Compound 45, 5-(4-Aminophenyl)-3-(2-fluorophenyl)-isoxazole] | 76 |
| COc1ccc(-c2c[nH]c(-c3cccc(N4CCOCC4)c3)n2)cc1OC [Compound 144, 4-{3-[4-(3,4-Dimethoxyphenyl)-1H-imidazol-2-yl]phenyl}morpholine] | 81 |
| Brc1cccc(-c2cc(-c3ccc4c(c3)OCCO4)n[nH]2)c1 [Compound 50, 5-(3-Bromophenyl)-3-(2,3-dihydro-1,4-benzodioxin-6-yl)-1H-pyrazole] | 28 |
| COc1ccc(-c2n[nH]c(-c3cccc(NC(=O)[C@H](C)N)c3)n2)cc1 [Compound 140, (2S)-2-Amino-N-{3-[3-(4-methoxyphenyl)-1H-1,2,4-triazol-5-yl]phenyl}propenamide hydrochloride] | 39 |
| Oc1ccc(-c2c[nH]c(-c3ccc(Br)cc3)n2)cc1 [Compound 118, 2-(4-Bromophenyl)-5-(4-hydroxyphenyl)-1H-imidazole] | 83 |
| Cc1ccc(NC(=O)[C@@H](N)Cc2ccccc2)cc1-c1nc(-c2ccc(F)cc2)n[nH]1 [Compound 103, (2S)-2-Amino-N-{3-[3-(4-fluorophenyl)-1H-1,2,4-triazol-5-yl]-4-methylphenyl}-3-phenylpropanamide hydrochloride] | 99 |
| O=C(O)c1cccc(-c2ncc(-c3ccc(C(F)(F)F)cc3O)o2)c1 [Compound 69, 3-{5-[2-Hydroxy-4-(trifluoromethyl)phenyl]-1,3-oxazol-2-yl}benzoic acid] | 99 |
| Nc1ccc(-c2nc(-c3cccc(C(F)(F)F)c3)no2)cc1 [Compound 74, 5-(4-Aminophenyl)-3-[3-(trifluoromethyl)phenyl]-1,2,4-oxadiazole] | 18 |
